# Measured values taken from patent US12642270B2, “Substituted thiophene carboxamides, thiophene carboxylic acids and derivatives thereof” (Bayer Aktiengesellschaft, priority 2019, dated 2026).
# Test: Log P by HPLC on reversed phase columns (EEC directive 79/831 Annex V.A8)
# Type: physicochemical
# Conditions: method [a]: LC-UV, acidic range, 0.1% formic acid in water and acetonitrile
# Procedure, shortened: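 Values come from retention times calibrated against alkan-2-ones (3–16 carbons) by linear interpolation, using reversed-phase LC-UV per EEC directive 79/831 Annex V.A8. Acetonitrile gradient 10–95% with 0.1% formic acid [a], 0.001 M ammonium acetate [b] or 0.1% phosphoric acid [c]; several values within one method separated by "+".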
row,LogP,SMILES
1,2.84^[a],O=C(NC1CCSC1=O)c1sc(Br)c(Br)c1F (stereo not shown) [I.0006]
2,2.89^[a],O=C(N[C@H]1CCSC1=O)c1sc(Br)c(Br)c1F [I.0017]
3,2.01^[a],O=C(NC1CCCNC1=O)c1sc(Br)c(Br)c1F (stereo not shown) [I.0061]
4,4.27^[a],CC[C@H](C)[C@H](NC(=O)c1sc(Cl)c(Br)c1C)C(=O)OC [I.0123]
5,4.37^[a],CC[C@H](C)[C@H](NC(=O)c1sc(Br)c(Br)c1F)C(=O)OC [I.0141]
6,1.71^[a],O=C(NC1CCNC1=O)c1cc(Cl)c(Br)s1 (stereo not shown) [I.0218]
7,1.77^[a],O=C1CC(NC(=O)c2cc(Cl)c(Br)s2)CCN1 (stereo not shown) [I.0219]
8,2.09^[a],O=C(NC1CCOC1=O)c1cc(Cl)c(Br)s1 (stereo not shown) [I.0220]
9,1.71^[a],O=C1CC(NC(=O)c2cc(Cl)c(Br)s2)CN1 (stereo not shown) [I.0221]
10,1.73^[a],O=C(NC1CCNC1=O)c1cc(Br)c(Cl)s1 (stereo not shown) [I.0222]
11,1.80^[a],O=C1CC(NC(=O)c2cc(Br)c(Cl)s2)CCN1 (stereo not shown) [I.0223]
12,2.14^[a],O=C(NC1CCOC1=O)c1cc(Br)c(Cl)s1 (stereo not shown) [I.0224]
13,1.73^[a],O=C1CC(NC(=O)c2cc(Br)c(Cl)s2)CN1 (stereo not shown) [I.0225]
14,3.40^[a],CCC(C)C(NC(=O)c1sc(Br)c(Br)c1F)C(=O)O (stereo not shown) [I.0235]
15,4.25^[a],CC[C@H](C)[C@H](NC(=O)c1sc(Br)c(Cl)c1C)C(=O)OC [I.0322]
16,2.98^[a],COC(=O)[C@H](Cc1ccccc1)NC(=O)[C@H](CC(=O)O)NC(=O)c1sc(Br)c(Br)c1F [I.0338]
17,3.09^[a],COC(=O)C(Cc1ccccc1)NC(=O)C(CC(=O)O)NC(=O)c1sc(Br)c(Cl)c1C (stereo not shown) [I.0339]

row,LogP,SMILES
1,3.13^[a],COC(=O)[C@H](Cc1ccccc1)NC(=O)[C@H](CC(=O)O)NC(=O)c1sc(Cl)c(Br)c1C [I.0340]
2,3.23^[a],COC(=O)C(Cc1ccccc1)NC(=O)C(CC(=O)O)NC(=O)c1sc(Cl)c(Cl)c1Br (stereo not shown) [I.0487]
3,3.20^[a],COC(=O)[C@H](Cc1ccccc1)NC(=O)[C@H](CC(=O)O)NC(=O)c1sc(Br)c(Br)c1Cl [I.0488]
4,2.70^[a],COC(=O)C(Cc1ccccc1)NC(=O)C(CC(=O)O)NC(=O)c1sc(C#N)c(Br)c1C (stereo not shown) [I.0501]
5,3.28^[a],O=C(N[C@H]1CCSC1=O)c1sc(Cl)c(Br)c1Cl [I.0525]
6,3.94^[a],CCOC(=O)C(C)(C)NC(=O)C(C)(C)NC(=O)c1sc(Cl)c(Br)c1Br [I.0699]
7,2.40^[a],O=C(NC1CCOC1=O)c1sc(Cl)c(Cl)c1C(F)F (stereo not shown) [I.0747]
8,1.94^[a],Cc1c(C(=O)N[C@H]2CCOC2=O)sc(C#N)c1Br [I.0761]
9,2.45^[a],Cc1c(C(=O)N[C@H]2CCOC2=O)sc(Cl)c1Br [I.0762]
10,2.42^[a],Cc1c(C(=O)N[C@H]2CCOC2=O)sc(Br)c1Cl [I.0763]
11,2.03^[a],O=C(N[C@H]1CNC1=O)c1sc(Cl)c(Cl)c1Br [I.0808]
12,2.02^[a],N#Cc1c(C(=O)NC2CCOC2=O)sc(Cl)c1Cl (stereo not shown) [I.0818]
13,2.05^[a],N#Cc1sc(C(=O)NC2CCOC2=O)c(Cl)c1Cl (stereo not shown) [I.0819]
14,2.48^[a],Cc1c(C(=O)NC2CCOC2=O)sc(Cl)c1Br (stereo not shown) [I.0820]
15,3.46^[a],Cc1c(C(=O)NC2CCSC2=O)sc(Br)c1Cl (stereo not shown) [I.0822]
16,2.45^[a],Cc1c(C(=O)NC2CCOC2=O)sc(Br)c1Cl (stereo not shown) [I.0825]

# Same assay, conditions: method [a]: LC-UV, acidic range, 0.1% formic acid in water and acetonitrile; listed as 1.0023
row,LogP,SMILES
1,2.99^[a],Cc1c(C(=O)NC2CCSC2=O)sc(Cl)c1Br (stereo not shown) [I.0023]

# Same assay, conditions: method [a]: LC-UV, acidic range, 0.1% formic acid in water and acetonitrile; listed as 1.0060
row,LogP,SMILES
1,2.25^[a],O=C(NC1CCOC1=O)c1sc(Br)c(Br)c1F (stereo not shown) [I.0060]

# Same assay, conditions: method [a]: LC-UV, acidic range, 0.1% formic acid in water and acetonitrile; listed as 1.0821
row,LogP,SMILES
1,3.03^[a],Cc1c(C(=O)NC2CCSC2=O)sc(Cl)c1Br (stereo not shown) [I.0821]

# Same assay, conditions: method marker [a] given with each value; Table 1.1, compounds of formula (I)
row,LogP,SMILES
1,3.37^[a],N#CC1(NC(=O)c2sc(Cl)c(Cl)c2Br)CCC1 [1.1014]
2,2.64^[a],Cc1c(C(=O)NC2(C#N)CCC2)sc(C#N)c1Br [1.1015]
3,3.03^[a],Cc1c(C(=O)NC(C#N)C(C)C)sc(C#N)c1Br (stereo not shown) [1.1016]
4,2.95^[a],O=C(NC1(C(=O)O)CCC1)c1sc(Cl)c(Cl)c1Br [1.1017]
5,2.80^[a],O=C(CNC(=O)c1sc(Br)c(Br)c1F)OC1CCOCC1 [1.1018]
6,3.73^[a],COC(=O)C(C)(C)NC(=O)c1sc(Cl)c(Br)c1Cl [1.1019]
7,3.75^[a],COC(=O)C(C)(C)NC(=O)c1sc(Br)c(Br)c1Cl [1.1020]
8,3.71^[a],COC(=O)C(C)(C)NC(=O)c1sc(Cl)c(Cl)c1Br [1.1021]
9,2.80^[a],CC(C)(NC(=O)c1sc(Cl)c(Br)c1Cl)C(=O)O [1.1022]
10,2.81^[a],CC(C)(NC(=O)c1sc(Br)c(Br)c1Cl)C(=O)O [1.1023]
11,2.80^[a],CC(C)(NC(=O)c1sc(Cl)c(Cl)c1Br)C(=O)O [1.1024]
12,3.98^[a],COC(=O)C(CCSC(C)=O)NC(=O)c1sc(Br)c(Br)c1Cl (stereo not shown) [1.1025]
13,3.40^[a],O=C(CNC(=O)c1sc(Br)c(Br)c1F)OCC(F)(F)F [1.1026]
14,4.40^[a],C[Si](C)(C)COC(=O)CNC(=O)c1sc(Br)c(Br)c1F [1.1027]
15,3.98^[a],COC(=O)C(CCSC(C)=O)NC(=O)c1sc(Cl)c(Cl)c1Br (stereo not shown) [1.1028]
16,3.45^[a],O=C(O)C(NC(=S)c1sc(Br)c(Br)c1F)C1CC1 (stereo not shown) [1.1029]
17,3.13^[a],O=C(O)CNC(=S)c1sc(Cl)c(Cl)c1I [1.1030]
18,3.23^[a],CCOC(=O)C1(NC(=O)c2sc(C#N)c(Cl)c2Cl)CSC1 [1.1041]
19,2.28^[a],COC(=O)[C@H](CC(=O)O)NC(=O)c1sc(Br)c(Br)c1F [1.1043]
20,2.58^[a],COC(=O)[C@H](CC(=O)O)NC(=O)c1sc(Cl)c(Cl)c1Br [1.1044]
21,2.07^[a],CNC(=O)CNC(=O)c1sc(Br)c(Br)c1Cl [1.1045]
22,3.94^[a],CCOC(=O)C1(NC(=O)c2sc(Br)c(Cl)c2Cl)CSC1 [1.1046]
23,2.23^[a],COC(=O)[C@H](CC(N)=O)NC(=O)c1sc(Cl)c(Cl)c1Br [1.1047]

row,LogP,SMILES
1,2.05^[a],COC(=O)[C@H](CCC(N)=O)NC(=O)c1sc(Br)c(Br)c1F [1.1048]
2,2.25^[a],COC(=O)[C@H](CCC(N)=O)NC(=O)c1sc(Cl)c(Cl)c1Br [1.1049]
3,2.68^[a],COC(=O)[C@H](CCC(=O)O)NC(=O)c1sc(Cl)c(Cl)c1Br [1.1050]
4,3.15^[a],CCOC(=O)C1(NC(=O)c2sc(Br)c(Br)c2C#N)CSC1 [1.1051]
5,3.58^[a],CCOC(=O)C1(NC(=O)c2sc(Br)c(Br)c2C(F)F)CSC1 [1.1052]
6,3.34^[a],COC(=O)C(C)(C)NC(=O)c1sc(C#N)c(Br)c1Br [1.1053]
7,3.05^[a],CCOC(=O)C1(NC(=O)c2sc(Cl)c(Cl)c2C#N)CSC1 [1.1054]
8,3.85^[a],N#CC1(NC(=O)c2sc(Br)c(Br)c2Cl)CCCSC1 (stereo not shown) [1.1055]
9,3.41^[a],N#CC1(NC(=O)c2sc(Br)c(Br)c2F)CCCSC1 (stereo not shown) [1.1056]
10,3.66^[a],CCOC(=O)C1(NC(=O)c2sc(Cl)c(Br)c2C)CSC1 [1.1057]
11,2.12^[a],N#CCNC(=O)c1sc(C#N)c(Br)c1Br [1.1058]
12,3.55^[a],CCOC(=O)C1(NC(=O)c2sc(Cl)c(Cl)c2C(F)F)CSC1 [1.1059]
13,3.91^[a],CCOC(=O)C1(NC(=O)c2sc(Cl)c(Br)c2Br)CSC1 [1.1060]
14,3.21^[a],COC(=O)C(C)(C)NC(=O)c1sc(Br)c(Br)c1C(F)F [1.1061]
15,4.24^[a],CCOC(=O)C(C)(C)NC(=O)c1sc(Cl)c(Cl)c1Br [1.1062]
16,3.62^[a],CCOC(=O)C1(NC(=O)c2sc(Br)c(Cl)c2C)CSC1 [1.1063]
17,2.63^[a],CCOC(=O)C(CO)NC(=O)c1sc(Br)c(Br)c1C(F)F (stereo not shown) [1.1064]
18,3.55^[a],COC(=O)C(CCSC)NC(=O)c1sc(Br)c(Br)c1C(F)F (stereo not shown) [1.1065]
19,3.05^[a],COC(=O)C(NC(=O)c1sc(Br)c(Br)c1C(F)F)C(=O)OC [1.1067]
20,2.67^[a],CCOC(=O)C(CO)NC(=O)c1sc(Cl)c(Cl)c1C(F)F (stereo not shown) [1.1068]
21,3.52^[a],COC(=O)C(CCSC)NC(=O)c1sc(Cl)c(Cl)c1C(F)F (stereo not shown) [1.1069]
22,3.16^[a],COC(=O)C(C)(C)NC(=O)c1sc(Cl)c(Cl)c1C(F)F [1.1070]

# Same assay, conditions: reversed phase HPLC columns, value in preparation example, method not marked
row,chromatographic logP,SMILES
1,2.4,"CCOC(=O)CNC(=O)c1sc(C#N)c(Br)c1C [I.0024, ethyl N-[(4-bromo-5-cyano-3-methyl-2-thienyl)carbonyl]glycinate]"
2,3.96,"CCSC(=O)C1(NC(=O)c2sc(Br)c(Br)c2I)CC1 [I.0139, S-ethyl 1-{[(4,5-dibromo-3-iodo-2-thienyl)carbonyl]amino}cyclopropanecarbothioate]"
3,2.57,"O=C(NC1(C(=O)O)CCC1)c1sc(Br)c(Br)c1F [I.0172, 1-{[(4,5-dibromo-3-fluoro-2-thienyl)carbonyl]amino}cyclobutanecarboxylic acid]"
4,1.97,"O=C(O)CNC(=O)c1sc(Br)c(Br)c1F [I.0227, N-[(4,5-dibromo-3-fluoro-2-thienyl)carbonyl]glycine]"
5,4.05,"CCOC(=O)[C@H](CC(C)C)NC(=O)c1sc(Cl)c(Cl)c1C#N [I.0279, ethyl N-[(4,5-dichloro-3-cyano-2-thienyl)carbonyl]leucinate]"
6,2.97,"CCOC(=O)CNC(=O)c1sc(Br)c(Br)c1F [I.0449, ethyl N-[(4,5-dibromo-3-fluoro-2-thienyl)carbonyl]glycinate]"
7,2.54,"CCOC(=O)CNC(=O)c1sc(C)c(Cl)c1F [I.0793, ethyl N-[(4-chloro-3-fluoro-5-methyl-2-thienyl)carbonyl]glycinate]"
